Data as given in patent publication US11555012B2 (Nimbus Artemis, Inc., priority 2018, dated 2023).
Like-named read-outs stand apart in the source and are kept apart here.

Experiments:
[1] = target: T1, ACL (Homo sapiens (Human), UniProt P53396); experiment: ACLY-MDH Coupled Assay
Target sequence in this assay (P53396 whole entry, species assumed): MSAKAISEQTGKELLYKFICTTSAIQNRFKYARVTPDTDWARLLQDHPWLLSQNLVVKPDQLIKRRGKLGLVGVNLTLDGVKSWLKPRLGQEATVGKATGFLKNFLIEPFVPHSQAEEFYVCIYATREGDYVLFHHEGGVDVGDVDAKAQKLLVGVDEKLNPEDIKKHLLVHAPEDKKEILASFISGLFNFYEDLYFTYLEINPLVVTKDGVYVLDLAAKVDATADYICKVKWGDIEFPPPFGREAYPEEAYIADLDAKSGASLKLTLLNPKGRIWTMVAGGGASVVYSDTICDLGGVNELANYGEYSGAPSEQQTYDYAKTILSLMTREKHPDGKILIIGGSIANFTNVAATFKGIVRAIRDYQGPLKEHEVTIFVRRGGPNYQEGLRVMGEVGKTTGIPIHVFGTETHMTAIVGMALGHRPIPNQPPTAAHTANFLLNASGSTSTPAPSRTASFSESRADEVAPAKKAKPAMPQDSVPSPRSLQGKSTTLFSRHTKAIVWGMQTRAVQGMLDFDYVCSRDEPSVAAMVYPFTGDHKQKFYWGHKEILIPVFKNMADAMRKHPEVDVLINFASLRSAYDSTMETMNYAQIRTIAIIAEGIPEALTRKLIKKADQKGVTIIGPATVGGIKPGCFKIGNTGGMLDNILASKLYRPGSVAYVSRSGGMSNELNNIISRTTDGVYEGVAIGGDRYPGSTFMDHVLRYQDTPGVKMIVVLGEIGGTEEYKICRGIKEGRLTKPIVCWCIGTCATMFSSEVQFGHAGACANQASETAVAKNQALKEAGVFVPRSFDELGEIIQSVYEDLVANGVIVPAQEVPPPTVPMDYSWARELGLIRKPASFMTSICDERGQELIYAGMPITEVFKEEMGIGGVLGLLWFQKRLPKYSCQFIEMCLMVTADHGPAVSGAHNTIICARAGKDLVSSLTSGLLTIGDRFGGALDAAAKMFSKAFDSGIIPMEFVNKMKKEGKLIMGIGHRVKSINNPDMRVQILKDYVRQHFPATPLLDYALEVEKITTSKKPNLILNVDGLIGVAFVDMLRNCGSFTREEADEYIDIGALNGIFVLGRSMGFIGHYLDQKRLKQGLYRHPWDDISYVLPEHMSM
Method: Compounds of the present invention were evaluated in an ACLY Coupled Assay.
The assay protocol for the Coupled Assay (below) was followed:
b) Add 1 μL cpds to 96 assay plate, Test cpd conc: 100/30/10 μM top dose, 3 folds dilution, 10+0+control (control: buffer without ACL+DMSO) points, 1000 rpm for 1 min, incubation at 25° C. for 60 min

[2] = system: HepG2 cells; conditions: Homo sapiens, HepG2, read-out: ACLY HepG2 14C-Pyruvate Assay serum free IC50 Cholesterol (IC50) [μM]
Method: ACLY HepG2 ^14C-Pyruvate Incorporation Serum-Free Assay (IC50 Cholesterol and Fatty Acid Synthesis)
Compounds of the present invention were evaluated in a HepG2 ^14C-pyruvate incorporation assay. The protocol below was followed:
(§1) After 48 hours, change medium with fresh growth medium.
(§2) After 18 hours, replaced medium using 0.5 mL fresh medium (5.5 mM Glucose, without FBS, 1% PS, without Pyruvate) containing Compounds or 0.5% DMSO, incubated at 37° C., 5% CO2 for 1 hour.
(§3) Add 3 μci of [14C]-pyruvate per well to the cell samples were incubated at 37° C., 5% CO2 for 5 hours.
Medium was removed and placed into a 15 mL centrifuge tube. Add 0.5 mL of 0.1M NaOH to each well and then transfer the cell lysates into the corresponding 15 mL centrifuge tubes. 1.0 mL of EtOH and 0.17 mL 50% KOH were added to 15 mL tubes containing medium and cell suspensions, then shaking tube gently. […] Saponification 15 mL tubes containing medium and cell suspensions were incubated at 90° C. for 1 hour, then cooled to room temperature. […] Cholesterol Extraction 5 mL of petroleum ether was added per tube to extract Cholesterol, shaken vigorously, centrifuged at 1000 rpm for 5 min, and ˜5 mL of the petroleum ether layer was transferred to a new glass tube (18*180 mm). […] Acidification The samples in 15 mL tube were acidified directly with 1 mL concentrated HCl, make sure pH was below 1. […] Fatty Acids Extraction 5 mL of petroleum ether was added per tube, shaken vigorously, centrifuged at 1000 rpm for 5 min, 5 mL of the petroleum ether layer was transferred to the corresponding glass tube. […] Count The petroleum ether extracts were pooled and evaporated to dryness overnight. The residue from the petroleum ether fractions were resuspended in 500 μL of chloroform-hexane (1:1) containing 420 μg of linoleic acid as a carrier. Add 200 μL of resuspending (chloroform-hexane (1:1) containing 168 μg of linoleic acid) to 2 mL Ultima Gold™, after 30 min, count on a scintillation counter.

[3] = target: T1, ACL; experiment: ADP-Glo Assay
Target sequence in this assay (P53396 other isoform, or with tags, fused parts or gaps isoform P53396-2): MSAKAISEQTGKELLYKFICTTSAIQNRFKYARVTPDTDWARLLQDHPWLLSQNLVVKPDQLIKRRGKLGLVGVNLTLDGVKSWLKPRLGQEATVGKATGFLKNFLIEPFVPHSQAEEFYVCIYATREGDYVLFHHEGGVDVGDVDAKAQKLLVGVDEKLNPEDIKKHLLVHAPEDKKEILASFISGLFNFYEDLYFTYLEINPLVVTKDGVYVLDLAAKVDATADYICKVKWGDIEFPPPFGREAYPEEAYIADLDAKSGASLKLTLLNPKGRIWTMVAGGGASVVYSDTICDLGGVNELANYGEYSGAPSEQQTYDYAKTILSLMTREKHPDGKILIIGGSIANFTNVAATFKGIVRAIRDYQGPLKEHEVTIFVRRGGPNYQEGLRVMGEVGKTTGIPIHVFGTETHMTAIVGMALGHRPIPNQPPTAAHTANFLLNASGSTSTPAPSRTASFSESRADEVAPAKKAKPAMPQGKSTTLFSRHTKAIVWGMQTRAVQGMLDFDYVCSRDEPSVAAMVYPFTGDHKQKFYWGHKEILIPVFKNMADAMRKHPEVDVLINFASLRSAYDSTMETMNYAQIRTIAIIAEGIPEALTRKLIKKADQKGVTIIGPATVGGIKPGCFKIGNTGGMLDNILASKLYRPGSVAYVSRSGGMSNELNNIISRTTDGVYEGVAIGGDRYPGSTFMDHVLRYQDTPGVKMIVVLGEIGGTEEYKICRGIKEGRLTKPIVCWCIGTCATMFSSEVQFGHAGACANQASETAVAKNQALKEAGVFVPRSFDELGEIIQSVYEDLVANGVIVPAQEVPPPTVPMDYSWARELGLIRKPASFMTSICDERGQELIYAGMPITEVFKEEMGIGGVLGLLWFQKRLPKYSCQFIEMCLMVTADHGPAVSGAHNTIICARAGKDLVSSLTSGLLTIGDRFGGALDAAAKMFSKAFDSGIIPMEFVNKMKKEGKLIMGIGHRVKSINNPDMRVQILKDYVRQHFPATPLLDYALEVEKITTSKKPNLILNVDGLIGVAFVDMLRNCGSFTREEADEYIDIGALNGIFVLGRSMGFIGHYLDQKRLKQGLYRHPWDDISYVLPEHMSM

[4] = system: HepG2 cells; conditions: Homo sapiens, HepG2, read-out: ACLY HepG2 14C-Pyruvate Assay serum free IC50 FA (IC50) [μM]
Method: ACLY HepG2 ^14C-Pyruvate Incorporation Serum-Free Assay (IC50 Fatty
The protocol of the assay (below) was followed:
as §1, §2, §3
Medium was removed and placed into a 15 mL centrifuge tube. Add 0.5 mL of 0.1M NaOH to each well and then transfer the cell lysates into the corresponding 15 mL centrifuge tubes. 1.0 mL of EtOH and 0.17 mL 50% KOH were added to 15 mL tubes containing medium and cell suspensions, then shaking tube gently. […] Saponification 15 mL tubes containing medium and cell suspensions were incubated at 90° C. for 1 hour, then cooled to room temperature. […] Cholesterol Extraction 5 mL of petroleum ether was added per tube to extract Cholesterol, shaken vigorously, centrifuged at 1000 rpm for 5 min, and ˜5 mL of the petroleum ether layer was transferred to a new glass tube (18*180 mm). […] Acidification The samples in 15 mL tube were acidified directly with 1 mL concentrated HCl, make sure pH was below 1. […] Fatty Acids Extraction 5 mL of petroleum ether was added per tube, shaken vigorously, centrifuged at 1000 rpm for 5 min, 5 mL of the petroleum ether layer was transferred to the corresponding glass tube. […] Repeat the Step 8 10. Count The petroleum ether extracts were pooled and evaporated to dryness overnight. The residue from the petroleum ether fractions were resuspended in 500 μL of chloroform-hexane (1:1) containing 420 μg of linoleic acid as a carrier. Add 200 μL of resuspending (chloroform-hexane (1:1) containing 168 μg of linoleic acid) to 2 mL Ultima Gold™, after 30 min, count on a scintillation counter.

[5] = read-out: ACL-MDH Coupled Assay (IC50), 8 nM ACL, 60 μM CoA Na2, 85 μM Citrate, 250 μM ATP, 250 μM NADH
[6] = read-out: ACL-ADP-Glo (IC50), 3 nM ACL, 15 μM ATP, 3 μM CoA, 300 μM Citrate

Row | SMILES | IC50 [1, 5] | IC50 [2] | IC50 [3, 6] | IC50 [4] | IC50 ([3]; read-out: ACL-ADP-Glo (IC50)) | IC50 [1] | IC50 [3]
1 | COC(=O)c1cc(Cl)c(O)c(S(=O)(=O)Nc2cc(-c3cccs3)ccc2F)c1 [I-60, Methyl 3-chloro-5-[[2-fluoro-5-(thiophen-2-yl)phenyl]sulfamoyl]-4-hydroxybenzoate] | < 0.05 µM | < 1 µM | < 0.05 µM | 1 to 10 µM |  |  | 
2 | COC(=O)c1cc(Cl)c(O)c(S(=O)(=O)Nc2cc(-c3ccccc3)c(F)cc2F)c1 [I-65, Methyl 3-chloro-5-[(2,4-difluoro-5-phenylphenyl)sulfamoyl]-4-hydroxybenzoate] | < 0.05 µM | 5 to 20 µM |  | > 10 µM | < 0.05 µM |  | 
3 | O=C(c1cc(Cl)c(O)c(S(=O)(=O)Nc2cc(-c3ccccc3)c(F)cc2F)c1)N1CCCC1 [I-82, 3-chloro-N-(4,6-difluoro-[1,1′-biphenyl]-3-yl)-2-hydroxy-5-(pyrrolidine-1-carbonyl)benzenesulfonamide] | < 0.05 µM | 1 to 5 µM | < 0.05 µM | > 10 µM |  |  | 
4 | CC(C)OC(=O)c1cc(Cl)c(O)c(S(=O)(=O)Nc2cc(-c3ccccc3)c(F)cc2F)c1 [I-86, propan-2-yl 3-chloro-5-[(2,4-difluoro-5-phenylphenyl)sulfamoyl]-4-hydroxybenzoate] | < 0.05 µM | 1 to 5 µM | < 0.05 µM | > 10 µM |  |  | 
5 | CON(C)C(=O)c1cc(Cl)c(O)c(S(=O)(=O)Nc2cc(-c3ccccc3)c(F)cc2F)c1 [I-87, 3-chloro-5-[(2,4-difluoro-5-phenylphenyl)sulfamoyl]-4-hydroxy-N-methoxy-N-methylbenzamide] | < 0.05 µM | 1 to 5 µM | < 0.05 µM | > 10 µM |  |  | 
6 | O=S(=O)(Nc1cc(-c2ccccc2)c(F)cc1F)c1cc(Br)cc(Cl)c1O [I-88, 5-bromo-3-chloro-N-[4,6-difluoro-[1,1-biphenyl]-3-yl]-2-hydroxybenzene-1-sulfonamide] | < 0.05 µM | 1 to 5 µM | < 0.05 µM | > 10 µM |  |  | 
7 | O=S(=O)(Nc1cc(-c2ccccc2)c(F)cc1F)c1cc(CO)cc(Cl)c1O [I-90, 3-chloro-N-(2,4-difluoro-5-phenylphenyl)-2-hydroxy-5-(hydroxymethyl)benzene-1-sulfonamide] |  | 1 to 5 µM |  | > 10 µM |  | 0.05 to 0.5 µM | 0.05 to 0.5 µM
8 | COCc1cc(Cl)c(O)c(S(=O)(=O)Nc2cc(-c3ccccc3)c(F)cc2F)c1 [I-91, 3-chloro-N-(2,4-difluoro-5-phenylphenyl)-2-hydroxy-5-(methoxymethyl)benzene-1-sulfonamide] |  | 1 to 5 µM |  | 1 to 10 µM |  | 0.05 to 0.5 µM | 0.05 to 0.5 µM
9 | O=C(c1cc(Cl)c(O)c(S(=O)(=O)Nc2cc(-c3ccccc3)c(F)cc2F)c1)N1CCC1 [I-98, 5-(azetidine-1-carbonyl)-3-chloro-N-(4,6-difluoro-[1,1′-biphenyl]-3-yl)-2-hydroxybenzenesulfonamide] | < 0.05 µM | 1 to 5 µM | < 0.05 µM | > 10 µM |  |  | 
10 | CCC(=O)c1cc(Cl)c(O)c(S(=O)(=O)Nc2cc(-c3ccccc3)c(F)cc2F)c1 [I-101, 3-chloro-N-(2,4-difluoro-5-phenylphenyl)-2-hydroxy-5-propanoylbenzene-1-sulfonamide] | < 0.05 µM | < 1 µM | < 0.05 µM | > 10 µM |  |  | 
11 | COC(=O)c1cc(Cl)c(O)c(S(=O)(=O)Nc2ccc(F)c(-c3ccccc3)c2F)c1 [I-110, Methyl 3-chloro-5-[(2,4-difluoro-3-phenylphenyl)sulfamoyl]-4-hydroxybenzoate] |  | 1 to 5 µM |  | > 10 µM |  | 0.5 to 30 µM | 0.5 to 20 µM
12 | COC(=O)c1cc(Cl)c(O)c(S(=O)(=O)Nc2cc(-c3ccccc3)cc(F)c2F)c1 [I-111, Methyl 3-chloro-5-[(2,3-difluoro-5-phenylphenyl)sulfamoyl]-4-hydroxybenzoate] | < 0.05 µM | 1 to 5 µM | < 0.05 µM | > 10 µM |  |  | 
13 | O=S(=O)(Nc1cc(-c2ccccc2)ccc1F)c1cc(Br)ccc1O [I-113, N5-bromo-N-(2-fluoro-5-phenylphenyl)-2-hydroxybenzene-1-sulfonamide] |  | 1 to 5 µM |  | 1 to 10 µM |  | 0.5 to 30 µM | 0.5 to 20 µM
14 | O=S(=O)(Nc1cc(-c2ccccc2)c(F)cc1F)c1cc(-c2ncco2)cc(Cl)c1O [I-116, 3-chloro-N-[4,6-difluoro-[1,1-biphenyl]-3-yl]-2-hydroxy-5-(1,3-oxazol-2-yl)benzene-1-sulfonamide] | < 0.05 µM | 1 to 5 µM | < 0.05 µM | > 10 µM |  |  | 
15 | O=S(=O)(Nc1cc(-c2ccccc2)c(F)cc1F)c1cc(C(F)(F)F)cc(Cl)c1O [I-117, 3-chloro-N-(4,6-difluoro-[1,1′-biphenyl]-3-yl)-2-hydroxy-5-(trifluoromethyl)benzenesulfonamide] | < 0.05 µM | 1 to 5 µM | < 0.05 µM | 1 to 10 µM |  |  | 
16 | COC(=O)c1cc(Cl)c(O)c(S(=O)(=O)Nc2cc(-c3ccccc3)c(F)cc2F)c1C [I-126, Methyl 5-chloro-3-([4,6-difluoro-[1,1-biphenyl]-3-yl]sulfamoyl)-4-hydroxy-2-methylbenzoate] |  | 1 to 5 µM | < 0.05 µM | 1 to 10 µM |  | 0.05 to 0.5 µM | 
17 | COC(=O)c1cc(Cl)c(O)c(S(=O)(=O)Nc2cc(C3CC3)c(F)cc2F)c1 [I-127, Methyl 3-chloro-5-[(5-cyclopropyl-2,4-difluorophenyl)sulfamoyl]-4-hydroxybenzoate] | < 0.05 µM | 1 to 5 µM | < 0.05 µM | > 10 µM |  |  | 
18 | COC(=O)c1cc(Cl)c(O)c(S(=O)(=O)Nc2cc(-c3cc4ccccc4s3)c(F)cc2F)c1 [I-128, Methyl 3-[[5-(1-benzothiophen-2-yl)-2,4-difluorophenyl]sulfamoyl]-5-chloro-4-hydroxybenzoate] | < 0.05 µM | 5 to 20 µM | < 0.05 µM | > 10 µM |  |  | 
19 | O=S(=O)(Nc1cc(-c2ccccc2)c(F)cc1F)c1cc(F)cc(Cl)c1O [I-135, 3-chloro-N-[4,6-difluoro-[1,1-biphenyl]-3-yl]-5-fluoro-2-hydroxybenzene-1-sulfonamide] |  | 1 to 5 µM |  | 1 to 10 µM |  | 0.05 to 0.5 µM | 0.05 to 0.5 µM
20 | O=C(c1cc(Cl)c(O)c(S(=O)(=O)Nc2cc(-c3cc4ccccc4s3)c(F)cc2F)c1)N1CCC1 [I-138, 5-(azetidine-1-carbonyl)-N-[5-(1-benzothiophen-2-yl)-2,4-difluorophenyl]-3-chloro-2-hydroxybenzene-1-sulfonamide] | < 0.05 µM | 1 to 5 µM | < 0.05 µM | 1 to 10 µM |  |  | 
21 | COc1ccc(-c2ccccc2)cc1NS(=O)(=O)c1cc(C(=O)N2CCC2)cc(Cl)c1O [I-145, 5-(azetidine-1-carbonyl)-3-chloro-2-hydroxy-N-[4-methoxy-[1,1-biphenyl]-3-yl]benzene-1-sulfonamide] | < 0.05 µM | 1 to 5 µM | < 0.05 µM | > 10 µM |  |  | 
22 | COC(=O)c1cc(Cl)c(O)c(S(=O)(=O)Nc2cc(C(C)C)c(F)cc2F)c1 [I-198, Methyl 3-chloro-5-(N-(2,4-difluoro-5-isopropylphenyl)sulfamoyl)-4-hydroxybenzoate] | < 0.05 µM | 1 to 5 µM | < 0.05 µM | > 10 µM |  |  | 
23 | O=C(O)c1ccc(-c2ccccc2)cc1NS(=O)(=O)c1cc(Cl)cc(Cl)c1 [I-208, 3-((3,5-dichlorophenyl)sulfonamido)-[1,1′-biphenyl]-4-carboxylic Acid] |  | 1 to 5 µM |  | 1 to 10 µM |  | 0.05 to 0.5 µM | 0.05 to 0.5 µM
24 | CC(C)C(=O)Oc1c(Cl)cc(-c2cncs2)cc1S(=O)(=O)Nc1cc(-c2ccccc2)c(F)cc1F [I-213, 2-chloro-6-(N-(4,6-difluoro-[1,1′-biphenyl]-3-yl)sulfamoyl)-4-(thiazol-5-yl)phenyl Isobutyrate] |  | 1 to 5 µM |  | 1 to 10 µM |  | 0.05 to 0.5 µM | 0.05 to 0.5 µM
25 | O=C(O)c1ccc(-c2ccccc2)cc1NS(=O)(=O)c1cc(F)cc(Cl)c1 [I-233, 3-((3-chloro-5-fluorophenyl)sulfonamido)-[1,1′-biphenyl]-4-carboxylic acid] |  | 5 to 20 µM |  | 1 to 10 µM |  | 0.05 to 0.5 µM | 0.5 to 20 µM
26 | O=S(=O)(Nc1ccc(-c2ccccn2)cc1F)c1cc(Cl)cc(Cl)c1O [I-235, 3,5-dichloro-N-(2-fluoro-4-(pyridin-2-yl)phenyl)-2-hydroxybenzenesulfonamide] |  | 1 to 5 µM |  | > 10 µM |  | 0.5 to 30 µM | 0.5 to 20 µM
27 | O=C(Oc1c(Cl)cc(C(=O)N2CCC2)cc1S(=O)(=O)Nc1cc(-c2ccccc2)c(F)cc1F)C1CC1 [I-236, 4-(azetidine-1-carbonyl)-2-chloro-6-(N-(4,6-difluoro-[1,1′-biphenyl]-3-yl)sulfamoyl)phenyl cyclopropanecarboxylate] |  | 1 to 5 µM | < 0.05 µM | > 10 µM |  | 0.05 to 0.5 µM | 
28 | O=C(Nc1cc(-c2ccccc2)ccc1C(=O)O)c1cc(Cl)cc(Cl)c1 [I-260, 3-(3,5-dichlorobenzamido)-[1,1′-biphenyl]-4-carboxylic Acid] |  | 1 to 5 µM |  | 1 to 10 µM |  | 0.5 to 30 µM | 0.5 to 20 µM
29 | O=S(=O)(Nc1cc(-c2ccccc2)c(F)cc1F)c1cc(CN2CCC2)cc(Cl)c1O [I-272, 5-(azetidin-1-ylmethyl)-3-chloro-N-(4,6-difluoro-[1,1′-biphenyl]-3-yl)-2-hydroxybenzenesulfonamide] |  | 1 to 5 µM |  | > 10 µM |  | 0.5 to 30 µM | 0.5 to 20 µM
